The test system of experiment [1] is human ovarian cancer cells. To be noted: cited from earlier work.
Another experiment deals with RIAZ. The experiment can be described thus: Localization of GFP/RIAZ in HTB-46 cells cotransfected with RIα (fluorescence microscopy). Type of experiment: cell-based, human. To be noted: HTB-46 cells cotransfected with RIα and GFP/RIAZ; cAMP for 8 hr. How it is done:
FIG. 10 depicts the effect of RIα and cAMP on localization of RIAZ. GJP fusions at the N-terminus (GFP/RIAZ) and the C-terminus (RIAZ/GFP) were generated. […] Localization of GFP/RIAZ on co-transfection with RIα is redistributed to the nucleus on addition of cAMP(Panel D). In more detail, nuclear localization of RIAZ and regulation of its localization by RIα in the presence or absence of cAMP was performed as follows: (A,B) HTB-46 cells were plated the night before and then transfected with GFP/RIAZ the following day. Localization of RIAZ was visualized 24 hr after transfection using a fluorescence microscope. (C) HTB-46 cells were cotransfected with RIα and GFP/RIAZ in the absence of cAMP. (D) RIAZ distribution after addition of cAMP for 8 hr.
To further understand the mechanisms of interaction of RIα with RIAZ, we constructed a hybrid protein between RIAZ and the green fluorescence protein (GFP), with GFP fused to either the N-terminal (GFP/RIAZ) or the C-terminal (RIAZ/GFP) end of RIAZ. Distribution of RIAZ was visualized using a Zeiss Axioskop fluorescence microscope. […] Even though the nuclear localization of RIAZ was not affected by the position of GFP either at the amino or the carboxy terminal end of RIAZ, however, whether the transcriptional activity of RIAZ may be affected remains to be determined. […]

In experiment [2] the test system is human bladder cancer and human testicular embryonal germ cell carcinoma. To be noted: simultaneous cisplatin and dipyridamole; high concentrations of dipyridamole; cited from earlier work.
The next experiment has as its target T1, RIα (Homo sapiens, UniProt P10644).
T1 construct: made in house; host or cells: E. coli (GST-RIα); RIAZ made by in vitro translation
The experiment can be described thus: Binding of in vitro-translated RIAZ to immobilized GST-RIα (pull down). The following applies: [35S]methionine labeled RIAZ; GST as control. On the procedure: FIG. 8. Binding of in-vitro translated RIAZ protein to RIα. GST and GST-RIα proteins were immobilized on glutathione resins and then incubated with [^35S]methinine labeled RIAZ. The complexes were thoroughly washed and eluted in gel-loading buffer, separated by SDS-PAGE, and exposed to X-ray film.
Deletion of a cluster of ATG in the 5′ end of the RIAZ cDNA seemed to enhance translation from the putative ATG start codon of the open reading frame that encode the BTB-POZ domain zinc finger. […] In addition, based on the functions of other BTB-POZ zinc finger proteins in this family, which play various roles in apoptosis, transcription repression, and regulation of cell proliferation, we speculate that RIAZ may have a role in these important cellular functions. Since the emergence of drug resistance in cancer is also intimately influenced by apoptosis, alterations in cellular transcription programs and tumorigenesis, therefore, it is conceivable that RIα mediated drug resistance may be executed through the actions of RIAZ. Biochemical and molecular characterizations of the interaction of RIAZ with RI and its function and significance in drug resistance may yield insights into the mechanisms of this novel cAMP signaling pathway.

T1 sequence (P10644 whole entry): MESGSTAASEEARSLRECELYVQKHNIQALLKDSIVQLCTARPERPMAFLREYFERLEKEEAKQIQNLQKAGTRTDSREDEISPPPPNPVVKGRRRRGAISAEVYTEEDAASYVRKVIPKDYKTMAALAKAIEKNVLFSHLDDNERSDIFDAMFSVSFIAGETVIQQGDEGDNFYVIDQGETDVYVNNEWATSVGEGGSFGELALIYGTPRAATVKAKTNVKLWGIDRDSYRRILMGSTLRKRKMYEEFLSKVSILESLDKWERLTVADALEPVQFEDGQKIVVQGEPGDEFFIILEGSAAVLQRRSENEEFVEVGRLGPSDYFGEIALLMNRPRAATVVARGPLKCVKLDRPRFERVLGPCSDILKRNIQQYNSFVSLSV

With `CC(C)Cn1c(=O)n(C)c(=O)c2[nH]cnc21` [3-isobutyl-1-methylxanthine], the “effect on cisplatin sensitivity” value in experiment [1] (treated ovarian carcinoma cells compared to untreated cells) is given as “increase in cisplatin sensitivity”.
Regarding `Nc1ncnc2c1nc(Br)n2[C@@H]1O[C@@H]2COP(=O)(O)O[C@H]2[C@H]1O` [8-Br-cAMP], the “RIAZ subcellular distribution after treatment” value in the experiment with RIAZ is listed as “translocate to the nucleus”.
In the case of `OCCN(CCO)c1nc(N2CCCCC2)c2nc(N(CCO)CCO)nc(N3CCCCC3)c2n1` [dipyridamole], the “tumor response in combination with cisplatin” value in experiment [2] was “complete tumor regression”. Besides, the “effect on growth of cisplatin-resistant cells” value in experiment [1] (dipyridamole treatment, cisplatin-resistant cells) was “did not affect the growth”.

B1: RIAZ: novel BTB-POZ domain zinc finger protein of 641 amino acids, SEQ ID NO: 17 (protein, listed as Homo sapiens)
chain: MERVNDASCGPSGCYTYQVSRHSTEMLHNLNQQRKNGGRFCDVLLRVGDESFPAHRAVLAACSEYFESVFSAQLGDGGAADGGPADVGGATAAPGGGAGGSRELEMHTISSKVFGDILDFAYTSRIVVRLESFPELMTAAKFLLMRSVIEICQEVIKQSNVQILVPPARADIMLFRPPGTSDLGFPLDMTNGAALAANSNGIAGSMQPEEEAARAAGAAIAGQASLPVLPGVDRLPMVAGPLSPQLLTSPFPSVASSAPPLTGKRGRGRPRKANLLDSMFGSPGGLREAGILPCGLCGKVFTDANRLRQHEAQHGVTSLQLGYIDLPPPRLGENGLPISEDPDGPRKRSRTRKQVACEICGKIFRDVYHLNRHKLSHSGEKPYSCPVCGLRFKRKDRMSYHVRSHDGSVGKPYICQSCGKGFSRPDHLNGHIKQVHTSERPHKCQTCNASFATRDRLRSHLACHEDKVPCQVCGKYLRAAYMADHLKKHSEGPSNFCSICNREGQKCSHQDPIESSDSYGDLSDASDLKTPEKQSANGSFSCDMAVPKNKMESDGEKKYPCPECGSFFRSKSYLNKHIQKVHVRALGGPLGDLGPALGSPFSPQQNMSLLESFGFQIVQSAFASSLVDPEVDQQPMGPEGK
As for B1, the “binding to GST-RIα” value with RIα is listed as “showed binding to GST-RIα but not to GST control”.

The values are drawn from US7214771B2, “Nucleic acid and protein expression thereby and their involvement in stress” (University of Medicine & Dentistry of New Jersey, priority 1999, dated 2007).
